Patent US20100256214A1, “EPH RECEPTOR LIGANDS AND METHODS OF USE” (Burnham Institute for Medical Research, priority 2009, published 2010)

Assays:
[1] = tested on: retinal neurons; assay: Growth cone collapse assay, nasal retina explants; assay type: cell-based, chicken; details: for ephrin-A5 Fc induced growth cone collapse: 1 μg/mL ephrin-A5 Fc, 400 μM compound, 5 μM KYL peptide; for shape of unstimulated growth cones: concentrations as high as 400 μM
Experimental: FIGS. 8A-8F. Compounds 1 and 2 block EphA4-dependent growth cone collapse in retinal neurons. A. Explants from embryonic day 6 chicken embryonic were preincubated with 5 μM KYL peptide for 15 min, stimulated for 30 min with 1 μg/mL ephrin-A5 Fc or Fc as a control in the continued presence of the peptide, and stained with rhodamine-phalloidin to label filamentous actin. B. Histogram showing the mean percentages of collapsed growth cones. Growth cones were scored as collapsed when no lamellipodia or filopodia were visible at the tip of the neurite. Approximately 30-200 growth cones per condition were scored in each experiment and error bars indicate standard error from 3 independent experiments. C-F. Experiments were performed as in (A), except that retinal explants were treated with 400 μM compound 1 (C,D) or compound 2 (E,F). Approximately 80-250 growth cones per condition were scored in each experiment, and error bars indicate standard error from 3 experiments. Collapsed growth cones under different conditions were compared to those in the Fc control condition by one-way ANOVA and Dunnett's post test. *P<0.05 and **P<0.01. Scale bars in (A), (C), (E)=[…].
Growth Cone Collapse Assay—Nasal retina explants from embryonic day 6 chicken embryos were cultured on coverslips coated with 200 μg/mL poly-L-lysine and 20 μg/mL lamining for 12 to 24 hours in DMEM/F-12 culture medium containing 10% FBS and 0.4% methylcellulose. Three hours before adding the Fc fusion proteins, the medium was changed to DMEM/F-12 without methylcellulose. The explants were incubated for 15 min with the KYL peptide or the chemical compounds and then stimulated for 30 min with 1 μg/mL preclustered ephrin-A5 Fc or Fc as a control. The cultures were fixed for 30 min in 4% paraformaldehyde/4% sucrose in phosphate buffered saline (PBS), permeabilized in 0.1% Triton X-100 in PBS and stained with rhodamine-conjugated phalloidin (Invitrogen, Carlsbad, Calif.). Cells were photographed under a fluorescence microscope and growth cones where scored in a blinded manner as collapsed when no lamellipodia or filopodia were present at the tip of the neurite.

[2] = molecular target: EphA4 (Mus musculus, UniProt Q03137); assay: ELISA, EphA4 AP binding to immobilized biotinylated KYL peptide; design: made in house; conditioned culture medium used
Experimental: Chemical Library Screening for EphA4 Inhibitors—A 96-well format in vitro assay was used for compound screening. Polystyrene high binding capacity plates (Corning, Corning, N.Y.) were incubated overnight at 4° C. with 2 μg/mL streptavidin (Pierce Biotecnology, Rockford, Ill.) diluted in borate buffer 0.1 M pH 8.7 and then coated by overnight incubation with 0.1 μM of biotinylated KYL peptide (Murai et al. (2003) Mol Cell Neurosci 24(4), 1000-1011) in binding buffer (Tris-buffered saline (TBS; 150 mM NaCl, 50 mM Tris-HCl, pH 7.5) with 1 mM CaCl2 and 0.01% Tween 20). Compounds were added to the wells at 10 μg/mL in 100% dimethylsulfoxide (DMSO) together with EphA4 alkaline phosphatase fusion protein (EphA4 AP) produced from transfected cells. Cell culture medium containing the secreted EphA4 AP was diluted 1:16 in binding buffer. The mixture was incubated for 3 hours at room temperature before washing with binding buffer and adding p-nitrophenylphosphate (pNPP) (Pierce Biotecnology, Rockford, Ill.) as the substrate. After 1 hour the reaction was stopped by adding 2N NaOH and the absorbance at 405 nm was measured using an ELISA plate reader Alkaline phosphatase activity from wells where alkaline phosphatase (AP) was added instead of EphA4 AP was subtracted as background. The inhibitory activity of the compounds was calculated by dividing the absorbance observed in the presence of each compound and the absorbance from wells where no compound was added. Compounds with inhibitory activity higher than 50% were considered hits.

[3] = tested on: COS and HT22 cells; assay: Overall tyrosine phosphorylation in COS and HT22 cells; assay type: cell-based
Experimental: Measurement of Receptor Tyrosine Phosphorylation in Cells—HT22 neuronal cells, which endogenously express EphA4, are derived from immortalized mouse hippocampal neurons (Li et al. (1997) Neuron 19(2), 453-463). COST cells, which endogenously express EphA2, EphB2 and the EGF receptor (EGFR), were obtained from ATCC. Both cell lines were grown in Dulbecco's Modified Eagle's Medium (DMEM) (Mediatech, Inc, Herndon, Va.) with 10% fetal bovine serum (FBS) (Hyclone, Logan, Utah) and Pen/Strep. For EphA4 immunoprecipitations, HT22 cells were serum-starved overnight in 0.5% FBS in DMEM and incubated for 15 min with the compounds or DMSO as a control. The cells were then stimulated with 0.5 μg/mL ephrin-A5 Fc, ephrin-A4 Fc or Fc for 20 min in the continued presence of the compounds. After stimulation the cells were lysed in modified RIPA buffer (1% Triton X-100, 1% Na deoxycholate; 0.1% SDS; 20 mM Tris; 150 mM NaCl; 1 mM EDTA) containing […], 1 μM sodium pervanadate and protease inhibitors. The protein concentration was calculated using the BCA protein assay kit (Pierce Biotecnology, Rockford, Ill.). Cell lysates were immunoprecipitated with 4 μg anti-EphA4 antibody (Soans et al. (1994) Oncogene 9(11), 3353-3361). For EphA2 and EphB2 immunoprecipitations, serum-starved COS7 cells were stimulated with 0.1 μg/mL ephrin-A1 Fc or 0.5 μg/mL ephrin-B2 Fc, respectively. […]

Chain of EphA4 (Q03137 20-547 limits assumed): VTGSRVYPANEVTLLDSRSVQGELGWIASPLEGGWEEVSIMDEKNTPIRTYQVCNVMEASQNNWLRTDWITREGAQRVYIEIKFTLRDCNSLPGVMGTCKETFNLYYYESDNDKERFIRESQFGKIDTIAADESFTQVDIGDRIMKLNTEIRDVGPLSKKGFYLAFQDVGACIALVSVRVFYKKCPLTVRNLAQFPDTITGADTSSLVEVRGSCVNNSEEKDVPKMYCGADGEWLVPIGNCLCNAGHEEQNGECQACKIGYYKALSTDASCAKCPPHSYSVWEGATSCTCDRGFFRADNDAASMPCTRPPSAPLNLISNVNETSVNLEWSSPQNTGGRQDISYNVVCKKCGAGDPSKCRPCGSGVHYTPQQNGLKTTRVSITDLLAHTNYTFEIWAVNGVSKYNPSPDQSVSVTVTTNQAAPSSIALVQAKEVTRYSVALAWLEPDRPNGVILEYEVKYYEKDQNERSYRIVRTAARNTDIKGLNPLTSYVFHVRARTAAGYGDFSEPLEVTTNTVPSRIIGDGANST

## Cc1ccc(C)n1-c1ccc(C(=O)O)c(O)c1 [compound 1, 4-(2,5-dimethyl-pyrrol-1-yl)-2-hydroxy-benzoic acid]
[1]
  ephrin-A5 Fc induced growth cone collapse: block
  shape of unstimulated growth cones: neither the KYL peptide nor the two compounds at concentrations as high as 400 μM affected the shape
[1]; listed as Compound 1
  ephrin-A5 Fc induced growth cone collapse: blocked
[2]
  inhibition of EphA4-KYL peptide binding (in words): inhibit
[3]
  overall tyrosine phosphorylation: did not inhibit

## Cc1ccc(C)n1-c1ccc(O)c(C(=O)O)c1 [compound 2, 5-(2,5 dimethyl-pyrrol-1-yl)-2-hydroxy-benzoic acid]
[1]
  ephrin-A5 Fc induced growth cone collapse: block
  shape of unstimulated growth cones: neither the KYL peptide nor the two compounds at concentrations as high as 400 μM affected the shape
[2]
  inhibition of EphA4-KYL peptide binding (in words): inhibit
[2]; read-out: IC50 for inhibition of EphA4 AP binding to KYL peptide
  IC50: 3 µM
[3]
  overall tyrosine phosphorylation: did not inhibit
